In one experiment the test system is HCMV wild-type. Nature of the experiment: HCMV yield assay. Type of experiment: cell-based, human cytomegalovirus. To be noted: human foreskin fibroblasts; for IC50: Human betaherpesvirus 5, Fibroblast, read-out: IC50 (ug/ml) HCMV. As to the method: Yield assay. Monolayer cultures of human foreskin fibroblasts are infected with HCMV wild-type, typically at a multiplicity of infection equal to 0.2, in the presence of inhibitor compound (varying concentrations). At three days post-infection, total virus produced in these cultures (i.e. virus yield) is assessed by harvesting and titering the virus in 12-well plates of cultured human foreskin fibroblasts (done in the absence of inhibitor). Plaques are quantified at 2 weeks post-infection. An inhibitor of HCMV is identified by the reduction in titer of virus yield in the presence, compared to the titer in the absence of compound. In this assay, the relative anti-HCMV activity of an inhibitor is typically determined by calculating the IC50 or IC90 value, that is, the amount of compound required to reduce the virus yield by 50% or 90%, respectively. Table I describes IC50 data for compounds tested against HCMV.

A further experiment has as its system HSV-1. Description: HSV Antiviral (ELISA) Assay. Type of experiment: cell-based, herpes simplex virus type 1. To be noted: Vero cells; for IC50: Human alphaherpesvirus 1, read-out: IC50 (ug/ml) HSV. As to the method:
Vero cells (ATCC #CCL-81) are plated on 96-well tissue culture plates at 3.5×10^4 cells per 100 μl tissue culture DMEM (Dulbecco's modified Eagle media) supplemented with 2% fetal bovine serum (FBS) in each well. After overnight incubation @37° C. (in 5% CO2) and 30 minutes prior to infection with HSV-1 (multiplicity of infection equal to 0.006), cells are either untreated, or treated with test compound (multiple concentrations) or reference standard drug control. After approximately 24 hours post-infection incubation @37° C. (in 5% CO2), cells are fixed for ELISA assay. The primary antibody is murine anti-HSV glycoprotein D monoclonal primary antibody and the secondary antibody is goat anti-mouse IgG linked to β-galactosidase. Thus the extent of viral replication is determined by assessing β-galactosidase activity by quantifying the generation of the 4-methyl umbeliiferone fluorescent cleavage product after addition of the methyl umbelliferyl-β-D-galactoside (Sigma #M1633) substrate on a microfluorimeter (365 nm for excitation and 450 nm for emission). Antiviral activity (IC50) of the test compound is determined by comparing the flourescence obtained in absence of compound to that obtained in the presence of compound.
In general terms: An ELISA detects its analyte on a solid surface through an enzyme-linked reagent.

The next experiment relates to VZV strain Ellen. Description: VZV Antiviral (ELISA) Assay. The class given is cell-based, varicella-zoster virus. To be noted: human foreskin fibroblast cells; for inhibition at 10 µg/mL: Human alphaherpesvirus 3, read-out: % inhibition 10 ug/ml VZV; for inhibition at 10 µg/mL / % inhibition 10 ug/ml VZV: 10 ug/ml; for IC50: Human alphaherpesvirus 3, read-out: IC50 (ug/ml) VZV. As to the method:
For the generation of stock VZV to be used in the assay, VZV strain Ellen (ATCC #VR-1367) is used to infect human foreskin fibroblast (HFF) cells at low multiplicity (less than 0.1) and incubated overnight at 37° C. in 5% CO2. After the overnight incubation, the mixture of uninfected and VZV-infected HFF infected cells are then harvested and added to each well of 96-well plates (3.5×10^4 cells in 100 μl DMEM supplemented with 2% FBS) which contain test compound or the reference standard drug control (in 100 μl DMEM supplemented with 2% FBS per well). These cells are incubated for three days at 37° C. in 5% CO2, then fixed for ELISA assay. The primary antibody is murine anti-VZV glycoprotein II monoclonal antibody (Applied Biosystems, Inc. #13-145-100) and the secondary antibody is goat anti-mouse IgG linked to β-galactosidase. Thus the extent of viral replication is determined by assessing β-galactosidase activity by quantifying the generation of the 4-methyl umbelliferone fluorescent cleavage product after addition of the methyl umbelliferyl-β-D-galactoside (Sigma #M1633) substrate on a microfluorimeter (365 nm for excitation and 450 nm for emission). Antiviral activity (IC50) of the test compound is determined by comparing the flourescence obtained in absence of compound to that obtained in the presence of compound.

In brackets after ≈: the same amount, converted by molar mass.

Take `COc1cc(OC)c(NC(=S)Nc2ccc(NC(=O)c3ccco3)c(C(F)(F)F)c2)cc1Cl` [Example 308, Furan-2-carboxylic acid {4-[3-(5-chloro-2,4-dimethoxy-phenyl)-thioureido]-2-trifluoromethyl-phenyl}-amide]: the IC50 was determined as 10 µg/mL (≈ 20 µM) in the experiment with HCMV wild-type, 10 µg/mL (≈ 20 µM) with HSV-1 and 4 µg/mL (≈ 8 µM) in the experiment with VZV strain Ellen. The inhibition at 10 µg/mL in the experiment with VZV strain Ellen was 100%.
Regarding “5-[3-(5-Chloro-2,4-dimethoxy-phenyl)-thioureido]-2-[(furan-2-carbonyl)-amino]-benzoic acid [Example 339]”, the “IC50 (ug/ml) HCMV” value with HCMV wild-type turned out to be 50 µg/mL. In the experiment with HSV-1, the “IC50 (ug/ml) HSV” value is over 50 µg/mL. Besides, in the experiment with VZV strain Ellen, the “% inhibition 10 ug/ml VZV” value came out at 11% and the “IC50 (ug/ml) VZV” value was over 10 µg/mL.
Regarding `COc1cc(OC)c(NC(=S)Nc2ccc(NC(=O)c3ccco3)c3ccccc23)cc1Cl` [Example 324, Furan-2-carboxylic acid {4-[3-(5-chloro-2,4-dimethoxy-phenyl)-thioureido]-naphthalen-1-yl}-amide], the results for the IC50 in the experiment on HCMV wild-type, in the experiment with HSV-1 and in the experiment on VZV strain Ellen were 8 µg/mL (≈ 16.6 µM), 4 µg/mL (≈ 8.3 µM) and over 10 µg/mL, respectively. In addition, the inhibition at 10 µg/mL in the experiment with VZV strain Ellen was 24%.
For `COc1cc(OC)c(NC(=S)Nc2ccc(NC(=O)c3ccco3)cc2OC)cc1Cl` [Example 390, Furan-2-carboxylic acid {4-[3-(5-chloro-2,4-dimethoxy-phenyl)-thioureido]-3-methoxy-phenyl}-amide], in that order: over 10 µg/mL, 0.5 µg/mL (≈ 1.08 µM), over 10 µg/mL and 61%.
On the same counts, the results for `COc1cc(OC)c(NC(=S)Nc2cc(O)c(NC(=O)c3ccco3)cc2Cl)cc1Cl` [Example 320, Furan-2-carboxylic acid {5-chloro-4-[3-(5-chloro-2,4-dimethoxy-phenyl)-thioureido]-2-hydroxy-phenyl}-amide] are 8 µg/mL (≈ 16.6 µM), 8 µg/mL (≈ 16.6 µM), over 10 µg/mL and 50%.
For `COc1cc(OC)c(NC(=S)Nc2ccc(NC(=O)c3ccco3)cc2Cl)cc1Cl` [Example 356, Furan-2-carboxylic acid {3-chloro-4-[3-(5-chloro-2,4-dimethoxy-phenyl)thioureido]-phenyl}-amide], in that order: 0.4 µg/mL (≈ 0.858 µM), 0.5 µg/mL (≈ 1.07 µM), 1.9 µg/mL (≈ 4.07 µM) and 72%.
As for `COc1cc(OC)c(NC(=S)Nc2ccc(NC(=O)c3ccco3)c(Cl)c2)cc1Cl` [Example 307, Furan-2-carboxylic acid {2-chloro-4-[3-(5-chloro-2,4-dimethoxy-phenyl)-thioureido]-phenyl}-amide], the IC50 is 5 µg/mL (≈ 10.7 µM) with HCMV wild-type, over 10 µg/mL in the experiment with HSV-1 and over 10 µg/mL in the experiment on VZV strain Ellen. The inhibition at 10 µg/mL with VZV strain Ellen turned out to be 30%.
As to `COc1cc(OC)c(NC(=S)Nc2cc(OC)c(NC(=O)c3ccco3)cc2C)cc1Cl` [Example 287, Furan-2-carboxylic acid {4-[3-(5-chloro-2,4-dimethoxy-phenyl)-thioureido]-2-methoxy-5-methyl-phenyl}-amide], the figures for the IC50 in the experiment on HCMV wild-type, with HSV-1 and in the experiment with VZV strain Ellen were over 50 µg/mL, 8 µg/mL (≈ 16.8 µM) and over 10 µg/mL, respectively. Also, in the experiment on VZV strain Ellen, the inhibition at 10 µg/mL amounted to 5%.
For `COc1cc(OC)c(NC(=S)Nc2ccc(NC(=O)c3ccco3)c(C#N)c2)cc1Cl` [Example 306, Furan-2-carboxylic acid {4-[3-(5-chloro-2,4-dimethoxy-phenyl)-thioureido]-2-cyano-phenyl}-amide], in that order: 2.5 µg/mL (≈ 5.47 µM), over 10 µg/mL, over 10 µg/mL and 33%.
On the same counts, the results for `COc1cc(OC)c(NC(=S)Nc2cc(C)c(NC(=O)c3ccco3)cc2Cl)cc1Cl` [Example 328, Furan-2-carboxylic acid {5-chloro-4[3-(5-chloro-2,4-dimethoxy-phenyl)-thioureido]-2-methyl-phenyl}-amide] are over 10 µg/mL, over 10 µg/mL, over 10 µg/mL and 44%.
For `COc1cc(OC)c(NC(=S)Nc2ccc(NC(=O)c3ccco3)cc2C)cc1Cl` [Example 296, Furan-2-carboxylic acid {4-[3-(5-chloro-2,4-dimethoxy-phenyl)-thioureido]-3-methyl-phenyl}-amide], in that order: 8 µg/mL (≈ 17.9 µM), 1.2 µg/mL (≈ 2.69 µM), over 10 µg/mL and 48%.
For `COc1cc(OC)c(NC(=S)Nc2ccc(NC(=O)c3ccco3)c(C)c2)cc1Cl` [Example 311, Furan-2-carboxylic acid {4-[3-(5-chloro-2,4-dimethoxy-phenyl)-thioureido]-2-methyl-phenyl}-amide], the IC50 was 6 µg/mL (≈ 13.5 µM) in the experiment on HCMV wild-type, 12 µg/mL (≈ 26.9 µM) with HSV-1 and over 10 µg/mL in the experiment on VZV strain Ellen. In addition, in the experiment with VZV strain Ellen, the inhibition at 10 µg/mL is 13%.
“Furan-2-carboxylic acid {4-[3-(5-chloro-2,4-dimethoxy-phenyl)-thioureido]-3-cyano-phenyl}-amide [Example 382]”: the “IC50 (ug/ml) HCMV” value in the experiment with HCMV wild-type was over 10 µg/mL. For the same compound, in the experiment on HSV-1, the “IC50 (ug/ml) HSV” value was over 10 µg/mL. In the experiment with VZV strain Ellen, the “% inhibition 10 ug/ml VZV” value is listed as 46% and the “IC50 (ug/ml) VZV” value is over 10 µg/mL.
As to `COc1cc(OC)c(NC(=S)Nc2cc(OC)c(NC(=O)c3ccco3)cc2OC)cc1Cl` [Example 276, Furan-2-carboxylic acid {4-[3-(5-chloro-2,4-dimethoxy-phenyl)-thioureido]-2,5-dimethoxy-phenyl}-amide], the values for the IC50 in the experiment with HCMV wild-type, with HSV-1 and with VZV strain Ellen were over 10 µg/mL, over 10 µg/mL and 4 µg/mL (≈ 8.13 µM), respectively. Also, in the experiment with VZV strain Ellen, the inhibition at 10 µg/mL was 75%.
Turning to `COc1cc(OC)c(NC(=S)Nc2ccc(NC(=O)c3ccco3)c(C(=O)Nc3ccccc3)c2)cc1Cl` [Example 302, Furan-2-carboxylic acid {4-[3-(5-chloro-2,4-dimethoxy-phenyl)-thioureido]-2-phenylcarbamoyl-phenyl}-amide], the IC50 was over 10 µg/mL in the experiment with HCMV wild-type, 10 µg/mL (≈ 18.1 µM) in the experiment with HSV-1 and over 10 µg/mL in the experiment on VZV strain Ellen. For the same compound, the inhibition at 10 µg/mL with VZV strain Ellen turned out to be 5%.
On to `COc1cc(OC)c(NC(=S)Nc2ccc(NC(=O)c3ccco3)cc2C(F)(F)F)cc1Cl` [Example 858, Furan-2-carboxylic acid {4-[3-(5-chloro-2,4-dimethoxy-phenyl)-thioureido]-3-trifluoromethyl-phenyl}-amide], for which the values for the IC50 in the experiment on HCMV wild-type, in the experiment on HSV-1 and in the experiment with VZV strain Ellen were 2 µg/mL (≈ 4 µM), 2.5 µg/mL (≈ 5 µM) and over 10 µg/mL, respectively. For the same compound, the inhibition at 10 µg/mL in the experiment on VZV strain Ellen was determined as 26%.
For `COc1cc(OC)c(NC(=S)Nc2ccc(NC(=O)c3ccco3)c(OC)c2)cc1Cl` [Example 304, Furan-2-carboxylic acid {4-[3-(5-chloro-2,4-dimethoxy-phenyl)-thioureido]-2-methoxy-phenyl}-amide], in that order: 7 µg/mL (≈ 15.2 µM), 8 µg/mL (≈ 17.3 µM), 11 µg/mL (≈ 23.8 µM) and 44%.
In the case of `COc1cc(OC)c(NC(=S)Nc2ccc(NC(=O)c3ccco3)c(C(=O)c3ccccc3)c2)cc1Cl` [Example 294, Furan-2-carboxylic acid {2-benzoyl-4-[3-(5-chloro-2,4-dimethoxy-phenyl)-thioureido]-phenyl}-amide], the values for the IC50 in the experiment on HCMV wild-type, in the experiment with HSV-1 and in the experiment with VZV strain Ellen were over 10 µg/mL, over 50 µg/mL and over 10 µg/mL, respectively. In addition, the inhibition at 10 µg/mL in the experiment on VZV strain Ellen was determined as 0%.

(Values after patent US6410571B1, “Heterocyclic carboxamide-containing thiourea inhibitors of herpes viruses containing a substituted phenylenediamine group” (American Home Products Corporation, priority 1998, dated 2002).)
